The subject of series [1] is androgen-induced prostatic enlargement in rats. Briefly: Androgen-induced prostatic enlargement in castrated rats, finasteride vs insulin-6. The series is classed as in vivo. As for the experimental part:
The efficacy of insulin-6 in reducing prostate growth is evaluated against finasteride in a comparative therapeutic protocol adapted from Talpur et al,0 Mol Cell Biochem. 2003 August;250(1-2):21-6. Pharmaceutical finasteride and alpha blockers are used to treat symptoms of benign prostatic hyperplasia (BPH) and are known to cause severe adverse reactions. The present study compares the in vivo effects of finasteride on androgen-induced prostatic enlargement in rats with insulin-6. Non-castrated rats, have a mean prostate weight of 124 mg+/−8.8 (S.E.M.) compared to the 24.5 mg+/−1.9 (S.E.M.) of a castrated rat followed under the same regimen (p<0.01). […] In the two treatment groups, castrated rats receiving testosterone are given finasteride or insulin-6.

The subject of series [2] is symptomatic benign prostatic hyperplasia (BPH). Briefly: Prospective study of finasteride, insulin-6 and combination in symptomatic benign prostatic hyperplasia. It counts as in vivo. The settings on record: men with BPH. As for the experimental part:
A prospective study is used to evaluate the therapeutic effect of finasteride, insulin-6, and a combination of finasteride and insulin-6 drugs for symptomatic benign prostatic hyperplasia (BPH). In a protocol adapted from Kuo (Urol Int. 1998;60(2):85-91), 190 men suffering from severe prostatism are subjected to study.
Patients are assessed by IPSS symptom score, digital rectal examination, transrectal sonography of the prostate, uroflowmetry and residual urine. The patients are randomly selected for medical treatment with insulin-6 (n=71), finasteride 5 mg q.d. (n=54), and a combination (n=65). Clinical assessments are carried out before treatment and 3 and 6 months after starting treatment. Patients who can not complete the treatment and those with prostatic cancer are excluded from the final statistics. The quality of life after 6 months of treatment and side effects are also assessed.

Series [3] relates to dogs with spontaneous benign prostatic hypertrophy. As for the experimental part:
The effect of insulin-6 on prostate size in benign prostatic hyperplasia is evaluated in a comparative study of finasteride and insulin-6 on size of the prostate gland and semen quality in dogs with benign prostatic hypertrophy in a protocol adapted from Sirinarumitr et al., J Am Vet Med Assoc. 2001 Apr. 15;218(8):1275-80.
Of […] dogs with BPH, five dogs are treated with insulin-6 or finasteride for 16 weeks (0.1 to 0.5 mg/kg [0.05 to 0.23 mg/lb] of body weight, PO, q 24 h); the other 4 receive a placebo. Prostatic diameter, measured radiographically, prostatic volume, measured ultrasonographically, semen quality, and serum DHT and testosterone concentrations are evaluated before and during treatment. After receiving the placebo for 16 weeks, the control dogs are treated with insulin-6 or finasteride for 16 weeks, and evaluations repeated.

`CC(C)(C)NC(=O)[C@H]1CC[C@H]2[C@@H]3CC[C@H]4NC(=O)C=C[C@]4(C)[C@H]3CC[C@]12C` [finasteride]: the “size of the prostate” value in series [1] (castrated rats receiving testosterone plus treatment) is “decrease the size of the prostate to roughly the same size as in the non-castrated rats”. In addition, in series [2] (after 6 months of treatment), the “quality of life after treatment” value was “satisfactory”. Besides, the IPSS symptom score result in series [2] (at 3 and 6 months) is “Improvement in IPSS is noted”. Further, in series [2] (at 6 months), the “Maximal flow rate (Qmax)” value is recorded as “significant increase in Qmax” and the prostatic volume entry is reported as “found to decrease”. Besides, in series [3] (dog, in vivo), the semen quality result was “do not adversely effect” and the semen volume result is “decrease semen volume”. Besides, the “serum DHT concentration, mean percentage decrease” value in series [3] (dogs with BPH, 16 weeks, 0.1 to 0.5 mg/kg PO q 24 h) is recorded as 58%. For the same molecule, in series [3] (dogs with BPH, 16 weeks, 0.1 to 0.5 mg/kg PO q 24 h, measured radiographically), the “prostatic diameter, mean percentage decrease” value is recorded as 20%. The “prostatic volume, mean percentage decrease” value in series [3] (dogs with BPH, 16 weeks, 0.1 to 0.5 mg/kg PO q 24 h, measured ultrasonographically) stood at 43%.

`C[C@]12CC[C@H]3[C@@H](CCC4=CC(=O)CC[C@@]43C)[C@@H]1CC[C@@H]2O` [testosterone] yielded a mean prostate weight in series [1] (castrated rats given testosterone, S.E.M. 31.7, p<0.01) of 250.0 mg.

For the origin of these results see patent US20060040854A1, “Prostate hyperplasia therapy” (Board of Regents, The University of Texas System, priority 2004, published 2006).
